Among the data in the NIST ThermoML archive (doi:10.1016/j.jct.2005.07.003) are activity coefficient values, retold here.

The series is described as follows: activity coefficient (dimensionless); of the first substance listed, at infinite dilution; xn = mol fraction of the nth substance listed. The conditions noted are these: 101 kPa, Liquid, Chromatography, x1 = 0.

Structures are written as SMILES. Several values for one entry are separate records, joined by “and”; a condition that tells them apart may be missing. Identical values can stand only once. ± gives the expanded uncertainty stated by the source.

With `C=CCCCCC` [1-heptene] + CCCCCCCC[n+]1ccn(C)c1.COCCOCCOS(=O)(=O)[O-], the activity coefficient is 10.3 and 10.8 (288.15 K); 10.5 and 10.1 (298.15 K); 8.51 and 9.33 (313.15 K).
Consider `C#CCCCCC` [1-heptyne] + CCCCCCCC[n+]1ccn(C)c1.COCCOCCOS(=O)(=O)[O-], for which the activity coefficient by setting is: (288.15 K) 5.69 and 5.38; (298.15 K) 4.92 and 5.11; (313.15 K) 4.7 and 4.67.
In the case of `c1ccccc1` [benzene] + CCCCCCCC[n+]1ccn(C)c1.COCCOCCOS(=O)(=O)[O-], the activity coefficient (288.15 K) came out at 1.33 ± 0.14; the activity coefficient (298.15 K) is 1.33 and 1.46; the activity coefficient (313.15 K) was 1.37 and 1.35.
`C1CCCCCC1` [cycloheptane] + CCCCCCCC[n+]1ccn(C)c1.COCCOCCOS(=O)(=O)[O-]: the activity coefficient reads like this: (288.15 K) 9.65 and 10.1; (298.15 K) 9.02 and 8.83; (313.15 K) 7.53 and 7.45.
As for `C1CCCCC1` [cyclohexane] + CCCCCCCC[n+]1ccn(C)c1.COCCOCCOS(=O)(=O)[O-], the activity coefficient is, setting by setting: (288.15 K) 8.52 and 8.34; (298.15 K) 7.86 ± 0.83; (313.15 K) 6.83 and 6.79.
Regarding `C1CCCCCCC1` [cyclooctane] + CCCCCCCC[n+]1ccn(C)c1.COCCOCCOS(=O)(=O)[O-], the activity coefficient (288.15 K) was 11.2 and 10.3; the activity coefficient (313.15 K) is 8.74 and 8.65.
Regarding `C1CCCC1` [cyclopentane] + CCCCCCCC[n+]1ccn(C)c1.COCCOCCOS(=O)(=O)[O-], the activity coefficient is 6.4 and 6.14 (288.15 K); 5.1 and 5.86 (298.15 K); 5.24 and 5.16 (313.15 K).
Regarding `CCCCCCC` [heptane] + CCCCCCCC[n+]1ccn(C)c1.COCCOCCOS(=O)(=O)[O-], the activity coefficient by setting is: (288.15 K) 17.9 and 17.4; (298.15 K) 16.4 and 16; (313.15 K) 13.5 and 13.3.
`C=CCCCC` [hex-1-ene] + CCCCCCCC[n+]1ccn(C)c1.COCCOCCOS(=O)(=O)[O-]: the activity coefficient is, setting by setting: (288.15 K) 8.61 and 8.47; (298.15 K) 8.14 and 8.33; (313.15 K) 7.47 and 7.74.
`CCCCCC` [hexane] + CCCCCCCC[n+]1ccn(C)c1.COCCOCCOS(=O)(=O)[O-]: the activity coefficient reads like this: (288.15 K) 14 ± 1.5; (298.15 K) 12.8 and 12.9; (313.15 K) 11.9 and 11.8.
Take `CO` [methanol] + CCCCCCCC[n+]1ccn(C)c1.COCCOCCOS(=O)(=O)[O-]: the activity coefficient is 0.37 and 0.44 (288.15 K); 0.38 ± 0.05 (298.15 K); 0.36 and 0.38 (313.15 K).
On to `C=CCCCCCC` [oct-1-ene] + CCCCCCCC[n+]1ccn(C)c1.COCCOCCOS(=O)(=O)[O-], for which the activity coefficient is 13.7 and 14 (288.15 K); 13.1 and 13.2 (298.15 K); 12 and 11.4 (313.15 K).
As for `CCCCCCCC` [octane] + CCCCCCCC[n+]1ccn(C)c1.COCCOCCOS(=O)(=O)[O-], the activity coefficient is, setting by setting: (288.15 K) 22.6 and 22.2; (298.15 K) 21.1 and 19.7; (313.15 K) 16.4 ± 1.7.
With `CCCCC` [pentane] + CCCCCCCC[n+]1ccn(C)c1.COCCOCCOS(=O)(=O)[O-], the activity coefficient was 12.6 and 11.6 (288.15 K); 10.6 and 10.3 (298.15 K); 10 and 9.5 (313.15 K).
